From PubChem BioAssay AID330 (DTP/NCI, 2004)
“And” between values parts separate entries of the source, which are not always exact repeats. Equal entries are not always repeated. Toxic doses and inconclusive results are not listed. Peptide text beside a SMILES is read from it.

Test system: P388 leukemia ip, CD2F1 mice, survival T/C
Assay: NCI In Vivo Anticancer Drug Screen. Data for tumor model P388 Leukemia (intraperitoneal) in CD2F1 (CDF1) mice
Conditions: endpoint: median survival time, higher = longer survival
Summary of the method: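 Mice carrying the transplanted tumor received test compound or vehicle. Survival was recorded in each group, and the value is the treated-group measurement divided by that of the vehicle-treated control group.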

[1] = dose: 50.0 mg/kg/injection, schedule: Q01DX009 (ip), vehicle: water
[2] = dose: 60.0 mg/kg/injection, schedule: Q01DX005 (ip), vehicle: saline with Tween-80
[3] = dose: 120.0 mg/kg/injection, schedule: Q01DX005 (ip), vehicle: saline with Tween-80
[4] = dose: 240.0 mg/kg/injection, schedule: Q01DX005 (ip), vehicle: saline with Tween-80
[5] = dose: 50.0 mg/kg/injection, schedule: Q01DX005 (ip), vehicle: saline with Tween-80
[6] = dose: 100.0 mg/kg/injection, schedule: Q01DX005 (ip), vehicle: saline with Tween-80
[7] = dose: 200.0 mg/kg/injection, schedule: Q01DX005 (ip), vehicle: saline with Tween-80

SMILES: CN(CNC(N)=O)N=O
- T/C [1]: 99 % of control
- T/C (dose: 100.0 mg/kg/injection, schedule: Q01DX009 (ip), vehicle: water): 108 % of control
- T/C (dose: 200.0 mg/kg/injection, schedule: Q01DX009 (ip), vehicle: water): 107 % of control

SMILES: CC(=O)C(=O)c1ccc(O)cc1
- T/C (dose: 10.0 mg/kg/injection, schedule: Q01DX009 (ip), vehicle: saline with Tween-80): 96 % of control
- T/C (dose: 20.0 mg/kg/injection, schedule: Q01DX009 (ip), vehicle: saline with Tween-80): 94 % of control
- T/C (dose: 40.0 mg/kg/injection, schedule: Q01DX009 (ip), vehicle: saline with Tween-80): 99 % of control

SMILES: CN(C)CCCNc1cccc2c1C(=O)c1cccc(NCCCN(C)C)c1C2=O
- T/C (dose: 4.0 mg/kg/injection, schedule: Q01DX009 (ip), vehicle: acid diluted with saline): 105 % of control
- T/C (dose: 7.5 mg/kg/injection, schedule: Q01DX009 (ip), vehicle: saline): 101 % of control
- T/C (dose: 8.0 mg/kg/injection, schedule: Q01DX009 (ip), vehicle: acid diluted with saline): 105 % of control
- T/C (dose: 12.5 mg/kg/injection, schedule: Q01DX005 (ip), vehicle: water): 108 % of control
- T/C (dose: 12.5 mg/kg/injection, schedule: Q01DX009 (ip), vehicle: water): 100 % of control
- T/C (dose: 15.0 mg/kg/injection, schedule: Q01DX009 (ip), vehicle: saline): 108 % of control
- T/C (dose: 16.0 mg/kg/injection, schedule: Q01DX009 (ip), vehicle: acid diluted with saline): 104 % of control
- T/C (dose: 25.0 mg/kg/injection, schedule: Q01DX005 (ip), vehicle: water): 114 % of control
- T/C (dose: 25.0 mg/kg/injection, schedule: Q01DX009 (ip), vehicle: water): 100 % of control
- T/C (dose: 30.0 mg/kg/injection, schedule: Q01DX009 (ip), vehicle: saline): 100 % of control
- T/C (dose: 32.0 mg/kg/injection, schedule: Q01DX009 (ip), vehicle: acid diluted with saline): 104 % of control
- T/C (dose: 50.0 mg/kg/injection, schedule: Q01DX005 (ip), vehicle: water): 102 % of control
- T/C [1]: 100 % of control
- T/C (dose: 60.0 mg/kg/injection, schedule: Q01DX009 (ip), vehicle: saline): 102 % of control
- T/C (dose: 64.0 mg/kg/injection, schedule: Q01DX009 (ip), vehicle: acid diluted with saline): 102 % of control

SMILES: CCC(C)SSc1ccccc1C(=O)Nc1ccc(Cl)cc1 (stereo unspecified)
- T/C [2]: 95 % of control
- T/C [3]: 97 % of control
- T/C [4]: 99 % of control

SMILES: Cc1cc(C)c(S(=O)(=O)N/N=C/C(=O)O)c(C)c1
- T/C (dose: 12.5 mg/kg/injection, schedule: Q01DX009 (ip), vehicle: other): 112 % of control and 117 % of control
- T/C (dose: 25.0 mg/kg/injection, schedule: Q01DX009 (ip), vehicle: other): 122 % of control
- T/C (dose: 100.0 mg/kg/injection, schedule: Q01DX009 (ip), vehicle: other): 154 % of control

SMILES: Cc1ccc(N=c2scc(-c3ccccc3)n2-c2ccccc2)cc1
- T/C (dose: 100.0 mg/kg/injection, schedule: Q04DX002 (ip), vehicle: saline with Tween-80): 102 % of control
- T/C (dose: 200.0 mg/kg/injection, schedule: Q04DX002 (ip), vehicle: saline with Tween-80): 93 % of control
- T/C (dose: 400.0 mg/kg/injection, schedule: Q04DX002 (ip), vehicle: saline with Tween-80): 95 % of control

SMILES: CC(C)CC(NC(=O)C(N)CC(=O)O)C(=O)O (stereo not drawn) (H-Asp-Leu-OH; configuration not given here)
- T/C (dose: 50.0 mg/kg/injection, schedule: Q01DX005 (ip), vehicle: Klucel (hydroxypropylcellulose) (HPC)): 100 % of control
- T/C (dose: 100.0 mg/kg/injection, schedule: Q01DX005 (ip), vehicle: Klucel (hydroxypropylcellulose) (HPC)): 98 % of control
- T/C (dose: 200.0 mg/kg/injection, schedule: Q01DX005 (ip), vehicle: Klucel (hydroxypropylcellulose) (HPC)): 99 % of control

SMILES: COc1ccc(-c2csc(NC(=O)Nc3nc(-c4ccc(OC)cc4)cs3)n2)cc1
- T/C (dose: 15.0 mg/kg/injection, schedule: Q01DX005 (ip), vehicle: saline with Tween-80): 97 % of control
- T/C (dose: 30.0 mg/kg/injection, schedule: Q01DX005 (ip), vehicle: saline with Tween-80): 100 % of control
- T/C [2]: 87 % of control and 91 % of control

SMILES: COc1ccc2cc1Oc1ccc(cc1)C[C@H]1c3cc(c(OC)cc3CCN1C)Oc1c(O)c(OC)cc3c1[C@H](C2)N(C)CC3
- T/C (dose: 25.0 mg/kg/injection, schedule: Q01DX009 (ip), vehicle: saline): 106 % of control
- T/C (dose: 50.0 mg/kg/injection, schedule: Q01DX009 (ip), vehicle: saline): 100 % of control
- T/C (dose: 50.0 mg/kg/injection, schedule: Q01DX009 (ip), vehicle: suspension in saline): 103 % of control
- T/C (dose: 100.0 mg/kg/injection, schedule: Q01DX009 (ip), vehicle: saline): 103 % of control
- T/C (dose: 100.0 mg/kg/injection, schedule: Q01DX009 (ip), vehicle: suspension in saline): 102 % of control

SMILES: Cn1cnc([N+](=O)[O-])c1N1CCN(c2ccccc2)CC1
- T/C (dose: 100.0 mg/kg/injection, schedule: Q01DX001 (ip), vehicle: saline with Tween-80): 97 % of control
- T/C (dose: 200.0 mg/kg/injection, schedule: Q01DX001 (ip), vehicle: saline with Tween-80): 93 % of control
- T/C (dose: 400.0 mg/kg/injection, schedule: Q01DX001 (ip), vehicle: saline with Tween-80): 94 % of control

SMILES: N/C(=C\c1nc2ccccc2nc1-c1ccccc1)c1ccccc1Cl
- T/C (dose: 60.0 mg/kg/injection, schedule: Q01DX005 (ip), vehicle: Klucel (hydroxypropylcellulose) (HPC)): 100 % of control
- T/C (dose: 120.0 mg/kg/injection, schedule: Q01DX005 (ip), vehicle: Klucel (hydroxypropylcellulose) (HPC)): 91 % of control

SMILES: CC(C)C1OC(=O)/C=C/C=C/C=C/C=C/C=C/CC(O)C(C)C(O)CC(O)CC(O)CC(O)CC(O)CC(O)CC(O)/C=C/C1C (stereo unspecified)
- T/C (dose: 1.56 mg/kg/injection, schedule: Q01DX009 (ip), vehicle: saline): 100 % of control
- T/C (dose: 3.12 mg/kg/injection, schedule: Q01DX009 (ip), vehicle: saline): 96 % of control
- T/C (dose: 6.25 mg/kg/injection, schedule: Q01DX009 (ip), vehicle: saline): 102 % of control and 92 % of control

SMILES: O=C1OC(C2OC(=O)C(=O)C2C(=O)c2cccc([N+](=O)[O-])c2)C(C(=O)c2cccc([N+](=O)[O-])c2)C1=O (stereo unspecified)
- T/C [2]: 100 % of control
- T/C [3]: 105 % of control
- T/C [4]: 100 % of control

SMILES: CCCCCCCCCCSc1n[nH]c(=S)s1
- T/C [5]: 100 % of control
- T/C [6]: 100 % of control
- T/C [7]: 105 % of control

SMILES: Clc1ccc2c(nnn2OC2CCCC2)c1Cl
- T/C (dose: 50.0 mg/kg/injection, schedule: Q01DX009 (ip), vehicle: saline with Tween-80): 88 % of control
- T/C (dose: 100.0 mg/kg/injection, schedule: Q01DX009 (ip), vehicle: saline with Tween-80): 94 % of control
- T/C (dose: 200.0 mg/kg/injection, schedule: Q01DX009 (ip), vehicle: saline with Tween-80): 94 % of control

SMILES: COc1ccc(C(C)=C2C=C(C(C)(C)C)C(=O)C(C(C)(C)C)=C2)cc1
- T/C (dose: 50.0 mg/kg/injection, schedule: Q01DX005 (ip), vehicle: saline + Tween-80 + alcohol): 111 % of control
- T/C (dose: 100.0 mg/kg/injection, schedule: Q01DX005 (ip), vehicle: saline + Tween-80 + alcohol): 109 % of control
- T/C (dose: 200.0 mg/kg/injection, schedule: Q01DX005 (ip), vehicle: saline + Tween-80 + alcohol): 113 % of control

SMILES: CC(=O)OC1CCC2C3CCC4=C(C(=O)C=CC4(C)O)C3CCC12C (stereo unspecified)
- T/C (dose: 4.0 mg/kg/injection, schedule: Q01DX009 (ip), vehicle: Klucel (hydroxypropylcellulose) (HPC)): 93 % of control
- T/C (dose: 8.0 mg/kg/injection, schedule: Q01DX009 (ip), vehicle: Klucel (hydroxypropylcellulose) (HPC)): 90 % of control
- T/C (dose: 16.0 mg/kg/injection, schedule: Q01DX009 (ip), vehicle: Klucel (hydroxypropylcellulose) (HPC)): 101 % of control
- T/C (dose: 32.0 mg/kg/injection, schedule: Q01DX009 (ip), vehicle: Klucel (hydroxypropylcellulose) (HPC)): 88 % of control
- T/C (dose: 64.0 mg/kg/injection, schedule: Q01DX009 (ip), vehicle: Klucel (hydroxypropylcellulose) (HPC)): 108 % of control

SMILES: COc1cc2c(OC)cc1CCC1=CC(=O)C=C(CC2)C1=O
- T/C [5]: 99 % of control
- T/C [6]: 103 % of control
- T/C [7]: 92 % of control

SMILES: c1ccc(CCc2ccnc3c2ccc2ccccc23)cc1
- T/C (dose: 25.0 mg/kg/injection, schedule: Q04DX003 (ip), vehicle: Klucel (hydroxypropylcellulose) (HPC)): 112 % of control
- T/C (dose: 50.0 mg/kg/injection, schedule: Q04DX003 (ip), vehicle: Klucel (hydroxypropylcellulose) (HPC)): 99 % of control
- T/C (dose: 100.0 mg/kg/injection, schedule: Q04DX003 (ip), vehicle: Klucel (hydroxypropylcellulose) (HPC)): 99 % of control

SMILES: NNC(=O)CCSC(=O)Nc1ccccc1
- T/C (dose: 12.5 mg/kg/injection, schedule: Q01DX005 (ip), vehicle: saline with Tween-80): 110 % of control
- T/C (dose: 25.0 mg/kg/injection, schedule: Q01DX005 (ip), vehicle: saline with Tween-80): 106 % of control
- T/C [5]: 107 % of control and 112 % of control
- T/C [6]: 114 % of control
